The source of these data is patent EP0514275A1, “Thiopyranopyrrole derivatives, their preparation and pharmaceutical compositions containing them” (RHONE-POULENC RORER S.A., priority 1991, dated 1992).

SMILES strings stand for the structures. Some results are limits rather than exact numbers.

A short description of test [1]: Analgesic activity (technique of Siegmund E. et al.). As to conditions: po, read-out: DE50 mg/kg p.o. The class given is in vivo. The source says:
II a notamment été mis en évidence, par l'étude de plusieurs produits que les nouveaux dérivés de thiopyranopyrrole manifestent une activité analgésique dans la technique de Siegmund E. et coll., Proc. Soc. Exp. Biol. Med., 95, 729 (1957).

Test [2] has as its system septide (agoniste de la substance P). As to the kind of experiment: Inhibition of septide-induced increase in capillary permeability (technique of A. Saria et al. adapted to the mouse). Conditions: sc, capillary permeability increase caused by septide, read-out: DE50 mg/kg s.c. The class given is in vivo, souris. From the text:
L'étude de plusieurs dérivés de thiopyranopyrrole de formule générale (I) dans la technique de A. Saria et coll., Arch. Pharmacol.,324, 212-218 (1983) adaptée à la souris a permis de mettre en évidence un effet inhibiteur de l'augmentation de la perméabilité capillaire entraîné par le septide (agoniste de la substance P, ce qui témoigne d'une activité anti-inflammatoire : […]

In the next test the test system is substance P. As to the kind of experiment: Antagonism of substance P-induced hypotension (technique of C.A. Maggi et al.). As to conditions: rat; 1 mg/kg i.v./mn for 5 mn; hypotension induced by i.v. injection of 250 mg/kg of substance P. The format is in vivo. Here is the method: L'injection de substance P chez l'animal provoque une hypotension. Les produits étudiés dans la technique de C.A. Maggi et coll., J. Auton. Pharmac., 7, 11-32 (1987) manifestent un effet antagoniste chez le rat vis-à-vis de cette hypotension. Notamment les produits administrés à la dose de 1 mg/kg i.v./mn, pendant 5 mn, provoquent un antagonisme de l'hypotension induite par une injection i.v. de […] de substance P.

Regarding `CN(C)CCCOc1ccccc1CC(=O)N1C[C@@H]2[C@H](C1)[S@+]([O-])CCC2(c1ccccc1)c1ccccc1` (racemic) [Exemple 7, {[(diméthylamino-3 propoxy-2)phényl]acétyl}-6 diphényl-4,4 oxyde-1 perhydrothiopyrano [2,3-c]pyrrole-(1RS,4aRS,7aRS)], in test [1], the ED50 was 3 mg/kg.
Consider `COc1ccccc1[C@H](C)C(=O)N1C[C@@H]2[C@H](C1)[S@+]([O-])CCC2(c1ccccc1)c1ccccc1` (single isomer, unassigned) [Exemple 10, [(-)-(méthoxy-2 phényl)-2 propionyl-(S) ] -6 diphényl-4,4 oxyde-1 erhydrothiopyrano[2,3-c]pyrrole-(1R*, 4aR*, 7aR*)], for which the ED50 in test [1] was 1.7 mg/kg; in test [2], < 0.1 mg/kg. The “% d'inhibition de l'hypotension” value with substance P was determined as 100%.
As to `CN(C)CCCOc1ccccc1CC(=O)N1C[C@@H]2[C@H](C1)[S@+]([O-])CCC2(c1ccccc1)c1ccccc1` (single isomer, unassigned) [Exemple 8, (-)-{[(diméthylamino-3 propoxy-2)phényl]-2 acétyl}-6 diphényl-4,4 oxyde-1 perhydrothiopyrano [2,3-c]pyrrole-(1R*,4aR*,7aR*)], in test [2], the ED50 is 0.05 mg/kg. Moreover, in the test on substance P, the “% d'inhibition de l'hypotension” value is given as 100%.
